# Reference: PubChem BioAssay (NCI)
#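 Where inhibition never reached the appropriate level, the endpoint shown equals the highest concentration tested. Otherwise, values were interpolated linearly from a five-concentration, 48-hour dose response in 96-well plates. TGI: concentration producing complete growth inhibition.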
# Tests used:
# Assay in all cases: NCI tumour cell line growth inhibition, 48 h
# T-47D breast = tested on: T-47D breast
# MOLT-4 leukemia = tested on: MOLT-4 leukemia
# TK-10 renal = tested on: TK-10 renal
# CCRF-CEM leukemia = tested on: CCRF-CEM leukemia
# HOP-92 NSCLC = tested on: HOP-92 NSCLC
# UACC-62 melanoma = tested on: UACC-62 melanoma
# 786-0 renal = tested on: 786-0 renal
# MDA-MB-435 = tested on: MDA-MB-435
# M14 melanoma = tested on: M14 melanoma
# KM12 colon = tested on: KM12 colon
# COLO 205 colon = tested on: COLO 205 colon
# OVCAR-3 ovarian = tested on: OVCAR-3 ovarian
# SR leukemia = tested on: SR leukemia
# CAKI-1 renal = tested on: CAKI-1 renal
# NCI/ADR-RES ovarian = tested on: NCI/ADR-RES ovarian
# HCC-2998 colon = tested on: HCC-2998 colon
# DU-145 prostate = tested on: DU-145 prostate
# EKVX NSCLC = tested on: EKVX NSCLC
# SK-MEL-28 melanoma = tested on: SK-MEL-28 melanoma
# NCI-H226 lung = tested on: NCI-H226 lung
# HT29 colon = tested on: HT29 colon
# MDA-MB-231 breast = tested on: MDA-MB-231 breast
# SNB-19 CNS = tested on: SNB-19 CNS
# SK-OV-3 ovarian = tested on: SK-OV-3 ovarian
# NCI-H522 lung = tested on: NCI-H522 lung
# RPMI-8226 leukemia = tested on: RPMI-8226 leukemia
# ACHN renal = tested on: ACHN renal
# LOX IMVI melanoma = tested on: LOX IMVI melanoma
# MCF7 breast = tested on: MCF7 breast
# MDA-N = tested on: MDA-N
# OVCAR-8 ovarian = tested on: OVCAR-8 ovarian
# UACC-257 melanoma = tested on: UACC-257 melanoma
# A549 NSCLC = tested on: A549 NSCLC
# PC-3 prostate = tested on: PC-3 prostate
# MALME-3M melanoma = tested on: MALME-3M melanoma
# SN12C renal = tested on: SN12C renal
# BT-549 breast = tested on: BT-549 breast
# OVCAR-5 ovarian = tested on: OVCAR-5 ovarian
# SK-MEL-5 melanoma = tested on: SK-MEL-5 melanoma
# SF-539 CNS = tested on: SF-539 CNS
# SF-295 CNS = tested on: SF-295 CNS
# SF-268 CNS = tested on: SF-268 CNS
# UO-31 renal = tested on: UO-31 renal
# A498 renal = tested on: A498 renal
# OVCAR-4 ovarian = tested on: OVCAR-4 ovarian
# HCT-15 colon = tested on: HCT-15 colon
# K-562 leukemia = tested on: K-562 leukemia
# HCT-116 colon = tested on: HCT-116 colon
# U251 CNS = tested on: U251 CNS
# NCI-H460 lung = tested on: NCI-H460 lung
# SW-620 colon = tested on: SW-620 colon
# HS 578T breast = tested on: HS 578T breast
# IGROV1 ovarian = tested on: IGROV1 ovarian
# HOP-62 NSCLC = tested on: HOP-62 NSCLC
# NCI-H23 lung = tested on: NCI-H23 lung
# SK-MEL-2 melanoma = tested on: SK-MEL-2 melanoma
# HL-60(TB) leukemia = tested on: HL-60(TB) leukemia
smiles,measurement,setting,value
N#CCN1c2ccccc2CCC1Cl (configuration not stated),TGI,T-47D breast,> 10 µM
same,TGI,MOLT-4 leukemia,> 10 µM
same,TGI,TK-10 renal,> 10 µM
same,TGI,CCRF-CEM leukemia,> 10 µM
same,TGI,HOP-92 NSCLC,> 10 µM
same,TGI,UACC-62 melanoma,> 10 µM
same,TGI,786-0 renal,> 10 µM
same,TGI,MDA-MB-435,> 10 µM
same,TGI,M14 melanoma,> 10 µM
same,TGI,KM12 colon,> 10 µM
same,TGI,COLO 205 colon,> 10 µM
same,TGI,OVCAR-3 ovarian,> 10 µM
same,TGI,SR leukemia,> 10 µM
same,TGI,CAKI-1 renal,> 10 µM
same,TGI,NCI/ADR-RES ovarian,> 10 µM
same,TGI,HCC-2998 colon,> 10 µM
same,TGI,DU-145 prostate,> 10 µM
same,TGI,EKVX NSCLC,> 10 µM
same,TGI,SK-MEL-28 melanoma,> 10 µM
same,TGI,NCI-H226 lung,> 10 µM
same,TGI,HT29 colon,> 10 µM
same,TGI,MDA-MB-231 breast,> 10 µM
same,TGI,SNB-19 CNS,> 10 µM
same,TGI,SK-OV-3 ovarian,> 10 µM
same,TGI,NCI-H522 lung,> 10 µM
same,TGI,RPMI-8226 leukemia,> 10 µM
same,TGI,ACHN renal,> 10 µM
same,TGI,LOX IMVI melanoma,> 10 µM
same,TGI,MCF7 breast,> 10 µM
same,TGI,MDA-N,> 10 µM
same,TGI,OVCAR-8 ovarian,> 10 µM
same,TGI,UACC-257 melanoma,> 10 µM
same,TGI,A549 NSCLC,> 10 µM
same,TGI,PC-3 prostate,> 10 µM
same,TGI,MALME-3M melanoma,> 10 µM
same,TGI,SN12C renal,> 10 µM
same,TGI,BT-549 breast,> 10 µM
same,TGI,OVCAR-5 ovarian,> 10 µM
same,TGI,SK-MEL-5 melanoma,> 10 µM
same,TGI,SF-539 CNS,> 10 µM
same,TGI,SF-295 CNS,> 10 µM
same,TGI,SF-268 CNS,> 10 µM
same,TGI,UO-31 renal,> 10 µM
same,TGI,A498 renal,> 10 µM
same,TGI,OVCAR-4 ovarian,> 10 µM
same,TGI,HCT-15 colon,> 10 µM
same,TGI,K-562 leukemia,> 10 µM
same,TGI,HCT-116 colon,> 10 µM
same,TGI,U251 CNS,> 10 µM
same,TGI,NCI-H460 lung,> 10 µM
same,TGI,SW-620 colon,> 10 µM
same,TGI,HS 578T breast,> 10 µM
same,TGI,IGROV1 ovarian,> 10 µM
same,TGI,HOP-62 NSCLC,> 10 µM
same,TGI,NCI-H23 lung,> 10 µM
C=C1CC(Cn2ccc(=O)[nH]c2=O)(c2ccc(OC)cc2)OC1=O (configuration not stated),TGI,T-47D breast,39.8 µM
same,TGI,MOLT-4 leukemia,8.25 µM
same,TGI,TK-10 renal,25.2 µM
same,TGI,CCRF-CEM leukemia,10.4 µM
same,TGI,HOP-92 NSCLC,4.58 µM
same,TGI,UACC-62 melanoma,27.9 µM
same,TGI,SK-MEL-2 melanoma,27.1 µM
same,TGI,786-0 renal,25.2 µM
same,TGI,MDA-MB-435,30.8 µM
same,TGI,M14 melanoma,21.2 µM
same,TGI,KM12 colon,35.5 µM
same,TGI,COLO 205 colon,14.5 µM
same,TGI,OVCAR-3 ovarian,36.1 µM
same,TGI,SR leukemia,10.5 µM
same,TGI,CAKI-1 renal,19.6 µM
same,TGI,NCI/ADR-RES ovarian,38.9 µM
same,TGI,HCC-2998 colon,17.5 µM
same,TGI,DU-145 prostate,31.3 µM
same,TGI,EKVX NSCLC,41.5 µM
same,TGI,SK-MEL-28 melanoma,33 µM
same,TGI,NCI-H226 lung,39.3 µM
same,TGI,HT29 colon,31.2 µM
same,TGI,MDA-MB-231 breast,33.2 µM
same,TGI,HL-60(TB) leukemia,7.45 µM
same,TGI,SNB-19 CNS,> 100 µM
same,TGI,SK-OV-3 ovarian,> 92.9 µM
same,TGI,NCI-H522 lung,4.4 µM
same,TGI,RPMI-8226 leukemia,12 µM
same,TGI,ACHN renal,33 µM
same,TGI,LOX IMVI melanoma,27.8 µM
same,TGI,MCF7 breast,16 µM
same,TGI,MDA-N,28 µM
same,TGI,OVCAR-8 ovarian,46.8 µM
same,TGI,UACC-257 melanoma,35.3 µM
same,TGI,A549 NSCLC,59.2 µM
same,TGI,PC-3 prostate,30.6 µM
same,TGI,MALME-3M melanoma,27 µM
same,TGI,SN12C renal,19 µM
same,TGI,BT-549 breast,24.6 µM
same,TGI,OVCAR-5 ovarian,32.2 µM
same,TGI,SK-MEL-5 melanoma,26.8 µM
same,TGI,SF-539 CNS,41.2 µM
same,TGI,SF-295 CNS,> 100 µM
same,TGI,SF-268 CNS,51.1 µM
same,TGI,UO-31 renal,31.7 µM
same,TGI,A498 renal,31.6 µM
same,TGI,OVCAR-4 ovarian,35.1 µM
same,TGI,HCT-15 colon,31.5 µM
same,TGI,K-562 leukemia,16 µM
same,TGI,HCT-116 colon,20 µM
same,TGI,U251 CNS,53.4 µM
same,TGI,NCI-H460 lung,> 67.6 µM
same,TGI,SW-620 colon,16.1 µM
same,TGI,HS 578T breast,56.9 µM
same,TGI,IGROV1 ovarian,31.6 µM
same,TGI,HOP-62 NSCLC,> 100 µM
same,TGI,NCI-H23 lung,29.2 µM
